According to PubChem BioAssay (NCI):
Several values for one entry are separate records, joined by “and”; a condition that tells them apart may be missing. Identical values can stand only once.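 Each compound was tested at five concentrations against cells in 96-well plates for 48 hours. The concentration for 50% growth inhibition is given as GI50. At the TGI there is no net growth.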

What was measured:
Experiment in all cases: growth of human tumour cells (NCI), 48 h
[1] = tested on: PC-3 prostate
[2] = tested on: OVCAR-4 ovarian
[3] = tested on: NCI-H522 lung
[4] = tested on: LOX IMVI melanoma
[5] = tested on: EKVX NSCLC
[6] = tested on: CAKI-1 renal
[7] = tested on: A498 renal
[8] = tested on: HOP-92 NSCLC
[9] = tested on: HS 578T breast
[10] = tested on: CCRF-CEM leukemia

Row | SMILES | GI50 [1] | TGI [1] | GI50 [2] | TGI [2] | GI50 [3] | TGI [3] | GI50 [4] | TGI [4] | GI50 [5] | TGI [5] | GI50 [6] | TGI [6] | GI50 [7] | TGI [7] | GI50 [8] | TGI [8] | GI50 [9] | TGI [9] | GI50 [10] | TGI [10]
1 | CN=C(N)c1ccc(N=C(N)c2ccc(-c3ccc(C(N)=Nc4ccc(C(N)=NC)cc4)cc3)cc2)cc1 | > 100 µM | > 100 µM | > 100 µM | > 100 µM | 18.4 µM | > 100 µM | 83 µM | > 100 µM | > 100 µM | > 100 µM | > 100 µM | > 100 µM | > 100 µM | > 100 µM | 84.5 µM | > 100 µM | > 100 µM | > 100 µM | > 100 µM | > 100 µM
2 | Cc1cc(=O)oc2ccc(OC/C=C3\CCC(=O)O3)cc12 | 3.59 µM | 21.2 µM | 1.21 µM | 3.13 µM | 1.65 µM | 3.57 µM | 4.94 µM | 17.2 µM | 18.7 µM | 45.6 µM | 2.72 µM | 14.8 µM | 12.3 µM | 50.6 µM | 5 µM | 24.4 µM | 10.8 µM | 48.9 µM | 2.61 µM | 7.96 µM
3 | C=C1C[C@H]2C=Nc3cc(OCCCOc4cc5c(cc4OC)C(=O)N4CC(=C)C[C@H]4C=N5)c(OC)cc3C(=O)N2C1 | 0.0212 µM and < 0.0138 µM | 3.13 µM | < 0.012 µM | 0.0191 µM | – | 0.0309 µM | – | – | 0.0665 µM and 0.0182 µM | – | 0.0113 µM | – | – | 0.0578 µM | – | 0.151 µM | – | > 100 µM | 0.00019 µM | 0.0144 µM
4 | O=C(O)C1=C/C(=C(/c2ccccc2)c2cc(C(=O)O)c(O)c3ccccc23)c2ccccc2C1=O | – | > 100 µM | – | > 100 µM | – | > 100 µM | – | – | – | > 100 µM | – | > 100 µM | – | > 100 µM | – | > 100 µM | – | > 100 µM | – | > 100 µM
5 | CC(C)=CCc1cc2c(cc1O)C1=C(C(=O)C3=C(C1=O)S(=O)(=O)CCN3)C(C=C(C)C)O2 (configuration not stated) | 1.6 µM | 12.8 µM | 0.469 µM | 2.44 µM | 0.568 µM | 1.85 µM | 0.492 µM | 2.06 µM | 1.55 µM | 6.93 µM | – | – | 3.54 µM | 5.96 µM | 3.31 µM | 7.61 µM | 1.31 µM | 8.15 µM | 0.696 µM | 8.98 µM
6 | COc1cc(/C=C/C(=O)c2cccc(-n3cc(-c4cc(OC)c(OC)c(OC)c4)[nH]c3=O)c2)cc(OC)c1OC | 2.63 µM | 18.6 µM | 3.77 µM | 55.6 µM | 1.05 µM | 2.53 µM | 1.23 µM | 3.48 µM | 9.48 µM | > 100 µM | 2.89 µM | 9.91 µM | 20.3 µM | > 100 µM | – | – | > 100 µM | > 100 µM | 0.275 µM | > 100 µM
7 | CSC1=NC(=Nc2c(C)cccc2C)C2(CCC(C(C)(C)C)CC2)N1c1ccc(Cl)cc1 (configuration not stated) | 6.05 µM | > 100 µM | > 100 µM | > 100 µM | – | – | 6.66 µM | > 100 µM | – | – | 6.59 µM | > 100 µM | > 100 µM | > 100 µM | 67.8 µM | > 100 µM | 95.8 µM | > 100 µM | – | –
8 | Cc1ccccc1N=Nc1c(O)ccc2ccccc12 | – | > 100 µM | – | > 100 µM | – | > 100 µM | – | > 100 µM | – | > 100 µM | – | > 100 µM | – | – | – | > 100 µM | – | > 100 µM | – | > 100 µM
9 | NC(N)=N/N=C/c1c(-c2ccsc2)nc2n1CCS2 | 17.5 µM | 39.2 µM | – | – | 39.3 µM | > 100 µM | 16.3 µM | 30.6 µM | 58 µM | > 100 µM | – | – | 64.1 µM | > 100 µM | – | – | 34.9 µM | > 100 µM | 19.5 µM | 54.6 µM
10 | COC1=C(N)C(=O)c2nc(-c3nc(C(=O)O)c(C)c(-c4ccc(OC)c(OC)c4O)c3N)ccc2C1=O | 0.0298 µM | 0.203 µM and 0.0292 µM and 0.0228 µM | – | 0.0183 µM and 0.0416 µM and 0.0515 µM | 0.000527 µM and 0.00336 µM and < 0.01 µM | 0.0214 µM and < 0.0111 µM | 0.024 µM and 0.00755 µM | – | 0.00938 µM and 0.0215 µM | 0.0349 µM and 0.0896 µM | – | – | 0.00128 µM | – | 0.00666 µM and < 0.0284 µM | 0.0442 µM and 0.428 µM | – | 0.0412 µM | 0.0206 µM and 0.00386 µM | 0.0398 µM and 0.0286 µM
11 | C=C1C(=O)O[C@H]2[C@H]1CC/C(COC(=O)c1cc(OC)c(OC)c(OC)c1)=C\CC[C@@]1(C)O[C@@H]21 | 1.8 µM | 4.49 µM | 2.09 µM | 6.11 µM | 0.589 µM | 2.25 µM | 1.34 µM | 2.73 µM | 1.78 µM | 4.5 µM | – | – | 2.57 µM | 8.56 µM | 0.523 µM | 2.1 µM | 3.68 µM | 32.7 µM | 0.293 µM | 2.28 µM
12 | Cn1cc(/C=C\[N+](=O)[O-])c2ccccc21 | 35.5 µM | > 100 µM | – | – | > 100 µM | > 100 µM | 18 µM | 36 µM | > 100 µM | > 100 µM | 66.8 µM | > 100 µM | 3.36 µM | 7.39 µM | 30.6 µM | > 100 µM | 19.8 µM | 50.5 µM | 25.2 µM | > 100 µM
13 | CCOC(=O)CSc1cc(Cl)c(C)cc1S(=O)(=O)/N=C(/N=C/c1ccc([N+](=O)[O-])s1)NNC | 25 µM | > 100 µM | 20.7 µM | 62.4 µM | 30.2 µM | 79.7 µM | 17.8 µM | 31.6 µM | 19.7 µM | 49.2 µM | 17.6 µM | 49.3 µM | – | – | 13.2 µM | 54.6 µM | 28 µM | 76.7 µM | 30.3 µM | > 100 µM
